Data as given in paper PMC3914206.

Experiments:
Assay in all cases: KiNativ chemical proteomics profiling in HeLa and PC3 cell lysates
Format in all cases: binding
[1] = molecular target: T1, selected panels of kinases in HeLa and PC3 cell lysates (Homo sapiens, UniProt P23743); details: 10 uM; proteome HEL; peptide […]kSGGK; labeling site ATP
T1 construct: endogenous in cells; host or cells: HeLa and PC3 cell lysates

[2] = molecular target: T2, selected panels of kinases in HeLa and PC3 cell lysates (Homo sapiens, UniProt Q9Y4K4); details: 10 uM; proteome PC3; peptide […]kIIK; labeling site Lys1
T2 construct: endogenous in cells; host or cells: HeLa and PC3 cell lysates
T2 sequence (Q9Y4K4 whole entry): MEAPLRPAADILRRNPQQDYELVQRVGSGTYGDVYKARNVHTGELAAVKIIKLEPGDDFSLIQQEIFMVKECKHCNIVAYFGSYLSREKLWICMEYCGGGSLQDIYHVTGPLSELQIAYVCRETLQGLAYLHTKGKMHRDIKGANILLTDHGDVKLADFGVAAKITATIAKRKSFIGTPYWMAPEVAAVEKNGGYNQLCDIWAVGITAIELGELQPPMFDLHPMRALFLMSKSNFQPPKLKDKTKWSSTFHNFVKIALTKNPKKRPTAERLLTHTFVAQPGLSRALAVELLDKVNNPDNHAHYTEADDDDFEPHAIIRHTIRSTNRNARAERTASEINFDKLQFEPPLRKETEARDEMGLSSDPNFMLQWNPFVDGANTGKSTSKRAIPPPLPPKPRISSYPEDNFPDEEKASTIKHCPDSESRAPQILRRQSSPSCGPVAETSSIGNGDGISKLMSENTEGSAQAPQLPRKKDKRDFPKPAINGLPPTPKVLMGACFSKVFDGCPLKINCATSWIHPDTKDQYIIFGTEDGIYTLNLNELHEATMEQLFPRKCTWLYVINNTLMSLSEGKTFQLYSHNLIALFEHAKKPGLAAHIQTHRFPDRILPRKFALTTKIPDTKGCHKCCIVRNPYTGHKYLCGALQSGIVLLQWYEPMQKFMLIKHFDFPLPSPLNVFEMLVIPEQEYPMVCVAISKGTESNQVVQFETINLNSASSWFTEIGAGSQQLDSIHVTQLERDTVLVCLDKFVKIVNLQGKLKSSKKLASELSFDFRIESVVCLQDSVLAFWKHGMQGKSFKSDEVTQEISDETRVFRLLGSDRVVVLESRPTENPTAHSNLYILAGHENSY

[3] = molecular target: T3, selected panels of kinases in HeLa and PC3 cell lysates (Homo sapiens, UniProt P10398); details: 10 uM; proteome HEL; peptide DLk[…]; labeling site Lys2
T3 construct: endogenous in cells; host or cells: HeLa and PC3 cell lysates
T3 sequence (P10398 whole entry): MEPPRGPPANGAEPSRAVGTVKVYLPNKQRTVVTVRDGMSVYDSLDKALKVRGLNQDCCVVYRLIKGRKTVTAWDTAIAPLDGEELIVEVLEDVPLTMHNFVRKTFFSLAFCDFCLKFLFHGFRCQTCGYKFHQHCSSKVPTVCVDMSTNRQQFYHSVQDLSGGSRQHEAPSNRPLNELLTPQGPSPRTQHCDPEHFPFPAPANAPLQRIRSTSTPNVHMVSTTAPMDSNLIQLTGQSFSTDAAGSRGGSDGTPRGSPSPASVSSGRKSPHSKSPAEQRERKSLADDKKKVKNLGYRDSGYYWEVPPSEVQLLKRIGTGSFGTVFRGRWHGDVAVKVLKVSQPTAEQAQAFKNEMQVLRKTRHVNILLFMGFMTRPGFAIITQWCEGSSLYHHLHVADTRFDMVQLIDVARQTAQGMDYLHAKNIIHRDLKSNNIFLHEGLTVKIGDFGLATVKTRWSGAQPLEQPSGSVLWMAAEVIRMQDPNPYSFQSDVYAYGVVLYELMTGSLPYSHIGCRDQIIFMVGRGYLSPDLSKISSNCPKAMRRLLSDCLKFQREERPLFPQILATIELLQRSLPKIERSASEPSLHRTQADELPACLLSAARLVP

[4] = molecular target: T4, selected panels of kinases in HeLa and PC3 cell lysates (Homo sapiens, UniProt O75460); details: 10 uM; proteome HEL; peptide DLk[…]; labeling site Lys2
T4 construct: endogenous in cells; host or cells: HeLa and PC3 cell lysates

[5] = molecular target: T5, selected panels of kinases in HeLa and PC3 cell lysates (Homo sapiens, UniProt P07948); details: 10 uM; proteome HEL; peptide VAVk[…]; labeling site Lys1
T5 construct: endogenous in cells; host or cells: HeLa and PC3 cell lysates

[6] = molecular target: T6, selected panels of kinases in HeLa and PC3 cell lysates (Homo sapiens, UniProt P15056); details: 10 uM; proteome HEL; peptide DLk[…]; labeling site Lys2
T6 construct: endogenous in cells; host or cells: HeLa and PC3 cell lysates
T6 sequence (P15056 whole entry): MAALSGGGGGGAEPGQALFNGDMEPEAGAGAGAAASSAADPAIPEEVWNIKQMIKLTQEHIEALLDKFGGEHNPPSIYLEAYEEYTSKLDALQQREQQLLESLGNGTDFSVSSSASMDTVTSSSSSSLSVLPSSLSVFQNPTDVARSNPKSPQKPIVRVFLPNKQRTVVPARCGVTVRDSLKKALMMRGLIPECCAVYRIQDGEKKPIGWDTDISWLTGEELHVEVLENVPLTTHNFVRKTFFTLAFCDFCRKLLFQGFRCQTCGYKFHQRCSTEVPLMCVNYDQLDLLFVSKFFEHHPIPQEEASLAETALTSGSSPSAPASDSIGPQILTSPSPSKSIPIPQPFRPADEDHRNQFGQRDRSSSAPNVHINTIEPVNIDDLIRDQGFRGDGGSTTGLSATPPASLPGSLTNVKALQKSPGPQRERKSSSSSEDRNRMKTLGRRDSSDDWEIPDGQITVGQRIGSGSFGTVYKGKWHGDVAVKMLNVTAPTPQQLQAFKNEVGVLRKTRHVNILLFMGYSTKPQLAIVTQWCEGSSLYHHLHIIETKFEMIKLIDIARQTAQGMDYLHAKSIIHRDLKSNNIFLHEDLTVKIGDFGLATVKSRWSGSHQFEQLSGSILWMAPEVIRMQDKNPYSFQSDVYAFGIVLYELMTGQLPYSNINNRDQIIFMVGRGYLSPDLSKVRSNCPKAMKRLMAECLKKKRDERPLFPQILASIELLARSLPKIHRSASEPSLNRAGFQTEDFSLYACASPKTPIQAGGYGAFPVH

[7] = molecular target: T7, selected panels of kinases in HeLa and PC3 cell lysates (Homo sapiens, UniProt Q16644); details: 10 uM; proteome HEL; peptide […]k[…]; labeling site ATP Loop
T7 construct: endogenous in cells; host or cells: HeLa and PC3 cell lysates

[8] = molecular target: T8, selected panels of kinases in HeLa and PC3 cell lysates (Homo sapiens, UniProt Q09013); details: 10 uM; proteome HEL; peptide DIkPDNILLDR; labeling site Lys2
T8 construct: endogenous in cells; host or cells: HeLa and PC3 cell lysates

[9] = molecular target: T9, selected panels of kinases in HeLa and PC3 cell lysates (Homo sapiens, UniProt Q15759); details: 10 uM; proteome PC3; peptide QELNkTVWEVPQR; labeling site Other
T9 construct: endogenous in cells; host or cells: HeLa and PC3 cell lysates
T9 sequence (Q15759 whole entry): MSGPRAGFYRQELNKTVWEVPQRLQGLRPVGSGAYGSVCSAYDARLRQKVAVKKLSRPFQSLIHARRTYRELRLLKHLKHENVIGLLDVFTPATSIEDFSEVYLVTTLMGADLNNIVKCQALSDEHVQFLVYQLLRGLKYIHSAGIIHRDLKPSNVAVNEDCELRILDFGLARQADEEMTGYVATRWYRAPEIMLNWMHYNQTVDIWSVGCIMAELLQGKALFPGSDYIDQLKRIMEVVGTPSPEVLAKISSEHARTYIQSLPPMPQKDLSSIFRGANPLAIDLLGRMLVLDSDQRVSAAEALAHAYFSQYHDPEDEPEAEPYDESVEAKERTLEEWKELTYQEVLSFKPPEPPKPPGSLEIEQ

[10] = molecular target: T10, selected panels of kinases in HeLa and PC3 cell lysates (Homo sapiens, UniProt Q9Y572); details: 10 uM; RIPK3; peptide DLk[…]; proteome HEL; labeling site Lys2
T10 construct: endogenous in cells; host or cells: HeLa and PC3 cell lysates

[11] = molecular target: T11, selected panels of kinases in HeLa and PC3 cell lysates (Homo sapiens, UniProt Q7RTN6); details: 10 uM; STLK5; peptide YSVk[…]; proteome HEL; labeling site Activation Loop
T11 construct: endogenous in cells; host or cells: HeLa and PC3 cell lysates

[12] = molecular target: T12, selected panels of kinases in HeLa and PC3 cell lysates (Homo sapiens, UniProt Q9UHD2); details: 10 uM; TBK1; peptide TGDLFAIk[…]; proteome HEL; labeling site Lys1
T12 construct: endogenous in cells; host or cells: HeLa and PC3 cell lysates

[13] = molecular target: T13, selected panels of kinases in HeLa and PC3 cell lysates (Homo sapiens, UniProt P08581); details: 10 uM, proteome PC3, labeling site Activation Loop
T13 construct: endogenous in cells; host or cells: HeLa and PC3 cell lysates
T13 sequence (P08581 25-1390): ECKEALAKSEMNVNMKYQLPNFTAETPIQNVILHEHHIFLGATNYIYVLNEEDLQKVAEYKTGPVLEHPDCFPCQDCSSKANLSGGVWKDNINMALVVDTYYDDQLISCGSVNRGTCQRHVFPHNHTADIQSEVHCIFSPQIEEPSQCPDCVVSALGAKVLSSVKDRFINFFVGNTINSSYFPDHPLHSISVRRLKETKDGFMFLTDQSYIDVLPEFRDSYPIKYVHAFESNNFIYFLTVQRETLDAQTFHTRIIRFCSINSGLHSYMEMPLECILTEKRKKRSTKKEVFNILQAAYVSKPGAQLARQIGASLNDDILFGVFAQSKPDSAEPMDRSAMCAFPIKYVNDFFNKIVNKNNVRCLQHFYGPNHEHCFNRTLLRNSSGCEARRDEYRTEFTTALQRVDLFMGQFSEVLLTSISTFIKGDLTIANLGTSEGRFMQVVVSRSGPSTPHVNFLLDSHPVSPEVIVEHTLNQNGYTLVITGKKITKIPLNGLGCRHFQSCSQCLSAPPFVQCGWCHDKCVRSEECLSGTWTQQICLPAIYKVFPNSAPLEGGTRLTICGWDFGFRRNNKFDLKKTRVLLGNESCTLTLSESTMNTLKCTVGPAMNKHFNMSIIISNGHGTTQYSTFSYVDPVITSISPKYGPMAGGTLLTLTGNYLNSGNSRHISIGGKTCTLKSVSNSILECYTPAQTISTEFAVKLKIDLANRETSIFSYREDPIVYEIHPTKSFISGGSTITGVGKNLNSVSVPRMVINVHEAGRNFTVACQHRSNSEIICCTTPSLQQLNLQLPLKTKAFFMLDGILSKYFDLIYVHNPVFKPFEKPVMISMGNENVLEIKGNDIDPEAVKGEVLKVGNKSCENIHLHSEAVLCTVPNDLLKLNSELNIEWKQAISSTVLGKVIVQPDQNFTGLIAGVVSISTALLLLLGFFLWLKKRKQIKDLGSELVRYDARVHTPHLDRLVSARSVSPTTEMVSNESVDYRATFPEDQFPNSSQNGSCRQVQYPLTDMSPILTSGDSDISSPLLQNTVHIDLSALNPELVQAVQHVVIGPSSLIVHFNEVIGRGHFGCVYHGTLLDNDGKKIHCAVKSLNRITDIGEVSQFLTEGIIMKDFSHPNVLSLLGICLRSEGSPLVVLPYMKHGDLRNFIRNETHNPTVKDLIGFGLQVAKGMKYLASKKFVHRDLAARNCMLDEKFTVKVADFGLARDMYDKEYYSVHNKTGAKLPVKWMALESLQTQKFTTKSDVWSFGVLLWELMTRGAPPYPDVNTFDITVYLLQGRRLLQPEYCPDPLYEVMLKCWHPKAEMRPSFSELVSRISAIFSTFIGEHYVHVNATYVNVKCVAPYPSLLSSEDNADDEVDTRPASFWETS

[14] = molecular target: T14, selected panels of kinases in HeLa and PC3 cell lysates (Homo sapiens, UniProt Q86UE8); details: 10 uM; TLK2; peptide YVAVkIHQLNK; proteome PC3; labeling site Lys1
T14 construct: endogenous in cells; host or cells: HeLa and PC3 cell lysates

[15] = molecular target: T15, selected panels of kinases in HeLa and PC3 cell lysates (Homo sapiens, UniProt P78527); details: 10 uM, labeling site ATP
T15 construct: endogenous in cells; host or cells: HeLa and PC3 cell lysates

[16] = molecular target: T16, selected panels of kinases in HeLa and PC3 cell lysates (Homo sapiens, UniProt Q96GD4); details: 10 uM; proteome HEL; peptide SHFIVALkVLFK; labeling site Lys1
T16 construct: endogenous in cells; host or cells: HeLa and PC3 cell lysates

[17] = molecular target: T17, selected panels of kinases in HeLa and PC3 cell lysates (Homo sapiens, UniProt P41743); details: 10 uM; PKCi; peptide IYAMkVVK; proteome HEL; labeling site Lys1
T17 construct: endogenous in cells; host or cells: HeLa and PC3 cell lysates

[18] = molecular target: T18, selected panels of kinases in HeLa and PC3 cell lysates (Homo sapiens, UniProt Q53H12); details: 10 uM; proteome PC3; peptide […]kGK; labeling site ATP
T18 construct: endogenous in cells; host or cells: HeLa and PC3 cell lysates

[19] = molecular target: T19, selected panels of kinases in HeLa and PC3 cell lysates (Homo sapiens, UniProt Q00535); details: 10 uM, proteome PC3
T19 construct: endogenous in cells; host or cells: HeLa and PC3 cell lysates
T19 sequence (Q00535 whole entry): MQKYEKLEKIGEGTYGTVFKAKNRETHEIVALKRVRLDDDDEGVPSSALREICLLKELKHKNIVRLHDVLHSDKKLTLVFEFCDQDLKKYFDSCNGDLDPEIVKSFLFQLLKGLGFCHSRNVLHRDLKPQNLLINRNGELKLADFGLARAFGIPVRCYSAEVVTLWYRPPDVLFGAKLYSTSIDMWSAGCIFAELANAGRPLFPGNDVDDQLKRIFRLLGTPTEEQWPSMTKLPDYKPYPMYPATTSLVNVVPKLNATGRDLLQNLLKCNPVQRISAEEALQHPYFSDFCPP

[20] = molecular target: T20, selected panels of kinases in HeLa and PC3 cell lysates (Homo sapiens, UniProt P21709); details: 10 uM; proteome PC3; peptide […]kIPIR; labeling site Activation Loop
T20 construct: endogenous in cells; host or cells: HeLa and PC3 cell lysates

[21] = molecular target: T21, selected panels of kinases in HeLa and PC3 cell lysates (Homo sapiens, UniProt P49760); details: 10 uM; proteome PC3; peptide LTHTDLk[…]; labeling site Lys2
T21 construct: endogenous in cells; host or cells: HeLa and PC3 cell lysates

[22] = molecular target: T22, selected panels of kinases in HeLa and PC3 cell lysates (Homo sapiens, UniProt P49840); details: 10 uM; proteome HEL; peptide DIk[…]; labeling site Lys2
T22 construct: endogenous in cells; host or cells: HeLa and PC3 cell lysates

[23] = molecular target: T23, selected panels of kinases in HeLa and PC3 cell lysates (Homo sapiens, UniProt O00418); details: 10 uM, peptide YIkYNSNSGFVR, labeling site Protein Kinase Domain
T23 construct: endogenous in cells; host or cells: HeLa and PC3 cell lysates
T23 sequence (O00418 whole entry, the tested form may be a part): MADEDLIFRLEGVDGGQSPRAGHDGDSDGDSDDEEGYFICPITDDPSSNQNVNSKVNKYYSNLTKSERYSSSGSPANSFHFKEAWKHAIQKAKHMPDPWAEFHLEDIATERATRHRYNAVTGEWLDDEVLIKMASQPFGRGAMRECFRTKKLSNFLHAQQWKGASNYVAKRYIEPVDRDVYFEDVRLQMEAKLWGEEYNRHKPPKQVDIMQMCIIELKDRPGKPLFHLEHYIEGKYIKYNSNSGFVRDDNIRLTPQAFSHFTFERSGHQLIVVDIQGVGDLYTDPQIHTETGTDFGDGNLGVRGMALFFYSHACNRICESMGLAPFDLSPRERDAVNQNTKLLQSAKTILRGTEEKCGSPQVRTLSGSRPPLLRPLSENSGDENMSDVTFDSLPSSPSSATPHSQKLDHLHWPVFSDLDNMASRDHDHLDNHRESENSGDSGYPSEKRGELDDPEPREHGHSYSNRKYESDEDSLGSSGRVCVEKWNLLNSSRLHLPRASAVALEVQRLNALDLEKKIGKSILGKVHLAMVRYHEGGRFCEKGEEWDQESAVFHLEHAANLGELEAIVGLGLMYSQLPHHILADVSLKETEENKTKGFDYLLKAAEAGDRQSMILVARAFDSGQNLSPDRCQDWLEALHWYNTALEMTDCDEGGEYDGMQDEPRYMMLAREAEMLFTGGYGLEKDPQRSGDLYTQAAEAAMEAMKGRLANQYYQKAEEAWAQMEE

[24] = molecular target: T24, selected panels of kinases in HeLa and PC3 cell lysates (Homo sapiens, UniProt Q13523); details: 10 uM; PRP4; peptide […]k[…]; proteome PC3; labeling site Lys2
T24 construct: endogenous in cells; host or cells: HeLa and PC3 cell lysates

[25] = molecular target: T25, selected panels of kinases in HeLa and PC3 cell lysates (Homo sapiens, UniProt Q9Y2H1); details: 10 uM; proteome PC3; peptide DTGHIYAMkILR; labeling site Lys1
T25 construct: endogenous in cells; host or cells: HeLa and PC3 cell lysates

[26] = molecular target: T26, selected panels of kinases in HeLa and PC3 cell lysates (Homo sapiens, UniProt Q05397); details: 10 uM; proteome PC3; peptide […]kTCK; labeling site Lys1
T26 construct: endogenous in cells; host or cells: HeLa and PC3 cell lysates

[27] = peptide DLkPQNLLINR, labeling site Lys2
[28] = peptide ETHEIVALkR, labeling site Lys1
[29] = peptide […]kR, labeling site Lys1

Row | SMILES | % Inhibiton, DGKA [1] [%] | % Inhibiton, KHS1 [2] [%] | % Inhibiton, ARAF [3] [%] | % Inhibiton, IRE1 [4] [%] | % Inhibiton, LYN [5] [%] | % Inhibiton, BRAF [6] [%] | % Inhibiton, MAPKAPK3 [7] [%] | % Inhibiton, DMPK1 [8] [%] | % Inhibiton, p38b [9] [%] | % Inhibition RIPK3 [10] [%] | % Inhibition STLK5 [11] [%] | % Inhibition TBK1 [12] [%] | % Inhibiton, MET ([13]; peptide DMYDkEYYSVHNK) [%] | % Inhibiton, MET ([13]; peptide […]kTGAK) [%] | % Inhibition TLK2 [14] [%] | % Inhibiton, DNAPK ([15]; proteome HEL, peptide […]k[…]) [%] | % Inhibiton, DNAPK ([15]; proteome PC3, peptide […]k[…]) [%] | % Inhibiton, DNAPK ([15]; proteome PC3, peptide k[…]) [%] | % Inhibiton, AurB [16] [%] | % Inhibition PKCi [17] [%] | further results
1 | CCOc1cc(C(=O)N2CCC(N3CCN(C)CC3)CC2)ccc1Nc1ncc2c(n1)N(C1CCCC1)c1ccccc1C(=O)N2C [Compound 26] | 5.7 | -7.1 | 2.9 | -19 | 26.5 | 8.6 | 20.8 | 29.4 | 14.6 | -2.4 | ~72.8 | ~57.6 | -12.7 | 9.2 | -11.7 | 2.3 | 10.1 | 23.8 | 42.5 | -2.8 | % Inhibiton, AGK [18]: 15.3%; % Inhibiton, CDK5 [19, 27]: -4.7%; % Inhibiton, CDK5 [19, 28]: -6.5%; % Inhibiton, CDK5 [19, 29]: 11.7%; % Inhibiton, EphA1 [20]: -0.1%; % Inhibiton, CLK2 [21]: 9.1%; % Inhibiton, GSK3A [22]: 10.2%; % Inhibiton, eEF2K ([23]; proteome HEL): 1.2%; % Inhibiton, eEF2K ([23]; proteome PC3): 1.9%; % Inhibition PRP4 [24]: 5.5%; % Inhibiton, NDR2 [25]: 8.2%; % Inhibiton, FAK [26]: 48.4%
2 | COc1cc(C(=O)N2CCC(N3CCN(C)CC3)CC2)ccc1Nc1ncc2c(n1)N(C1CCCC1)c1ccccc1C(=O)N2C [Compound 25, 11-cyclopentyl-2-((2-methoxy-4-(4-(4-methylpiperazin-1-yl)piperidine-1-carbonyl)phenyl)amino)-5-methyl-5H-benzo[e]pyrimido[5,4-b][1,4]diazepin-6(11H)-one] | 8.1 | -6.6 | -0.657 | -1.8 | -2.9 | -0.2 | 1.8 | 10.0 | 14.5 | -1.3 | -32.9 | -96.8 | -15.9 | 4.8 | -3.6 | 2.3 | -16.3 | -9.9 | 65.8 | 13.3 | % Inhibiton, AGK [18]: 1.8%; % Inhibiton, CDK5 [19, 27]: -8.6%; % Inhibiton, CDK5 [19, 28]: 9.7%; % Inhibiton, CDK5 [19, 29]: -1.2%; % Inhibiton, EphA1 [20]: -1.8%; % Inhibiton, CLK2 [21]: -17.0%; % Inhibiton, GSK3A [22]: 4.1%; % Inhibiton, eEF2K ([23]; proteome HEL): 8.7%; % Inhibiton, eEF2K ([23]; proteome PC3): -9.1%; % Inhibition PRP4 [24]: -11.9%; % Inhibiton, NDR2 [25]: -0.235%; % Inhibiton, FAK [26]: 79.4%
